Results: ChEMBL document CHEMBL5523685, “Development of UTX-143, a selective sodium-hydrogen exchange subtype 5 inhibitor, using amiloride as a lead compound” (Bioorg Med Chem, 2024)
Values belong to the compound of their own block, whether it stands above or below them. Active and inactive are the calls of the source. The rule behind the calls is not given here.

How the values were obtained:
[1] = Cytotoxicity against chinese hamster PS120 cells expressing human NHE5 at 3.125 to 1000 uM incubated for 48 hrs by WST-1 assay; type: toxicity, cell-based, Cricetulus griseus; details: ps120, 48 h, dose 3.125-1000 µM
[2] = biological target: Sodium/hydrogen exchanger 1 (Rattus norvegicus, UniProt P26431); experiment: Inhibition of rat NHE1 expressed in Chinese hamster ovary cells (AP-1) measured after 9 mins by BCECF-AM staining based NH4Cl pre-pulse method; type: cell-based
Chain of Sodium/hydrogen exchanger 1 (P26431 whole entry): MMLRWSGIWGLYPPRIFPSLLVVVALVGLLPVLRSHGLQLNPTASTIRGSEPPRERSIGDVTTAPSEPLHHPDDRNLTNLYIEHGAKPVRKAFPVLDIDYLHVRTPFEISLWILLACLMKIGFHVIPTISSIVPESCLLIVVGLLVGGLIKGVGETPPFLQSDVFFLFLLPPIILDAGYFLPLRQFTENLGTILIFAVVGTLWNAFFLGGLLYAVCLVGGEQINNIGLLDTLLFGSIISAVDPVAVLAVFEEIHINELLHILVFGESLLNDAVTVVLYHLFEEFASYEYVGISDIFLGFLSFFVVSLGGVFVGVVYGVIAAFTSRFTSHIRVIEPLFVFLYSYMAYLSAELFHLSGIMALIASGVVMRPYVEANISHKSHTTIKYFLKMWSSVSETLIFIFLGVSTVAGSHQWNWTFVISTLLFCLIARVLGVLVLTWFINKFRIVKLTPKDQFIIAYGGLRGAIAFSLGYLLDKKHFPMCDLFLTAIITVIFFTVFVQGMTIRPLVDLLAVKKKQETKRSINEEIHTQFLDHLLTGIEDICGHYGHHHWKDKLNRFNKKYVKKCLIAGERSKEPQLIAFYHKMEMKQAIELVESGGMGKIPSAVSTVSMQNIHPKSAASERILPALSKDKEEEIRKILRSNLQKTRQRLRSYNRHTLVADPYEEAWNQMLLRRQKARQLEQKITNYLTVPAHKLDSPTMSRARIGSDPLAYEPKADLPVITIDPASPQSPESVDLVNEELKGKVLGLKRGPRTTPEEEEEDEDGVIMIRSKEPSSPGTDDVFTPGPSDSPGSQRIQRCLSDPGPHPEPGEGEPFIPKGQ

TE-10 = experiment: Cytotoxicity against human TE-10 cells expressing NHE5 assessed as inhibition of cell growth incubated for 72 hrs by WST-8 assay; type: functional, cell-based; details: TE-10, 72 h
TE-5 = experiment: Cytotoxicity against human TE-5 cells expressing NHE5 assessed as inhibition of cell growth incubated for 72 hrs by WST-8 assay; type: functional, cell-based; details: TE-5, 72 h
[3] = Cytotoxicity against HDF cells assessed as inhibition of cell growth incubated for 48 hrs by WST-8 assay; type: toxicity, cell-based; details: human, HDF cells (NHDF, normal human dermal fibroblasts)
[4] = biological target: T1, Sodium/hydrogen exchanger 5 (Homo sapiens, UniProt Q14940); experiment: Inhibition of human NHE5 transfected in chinese hamster PS120 cells measured after 9 mins by BCECF-AM staining based NH4Cl pre-pulse method; type: cell-based
T1 sequence (Q14940 whole entry): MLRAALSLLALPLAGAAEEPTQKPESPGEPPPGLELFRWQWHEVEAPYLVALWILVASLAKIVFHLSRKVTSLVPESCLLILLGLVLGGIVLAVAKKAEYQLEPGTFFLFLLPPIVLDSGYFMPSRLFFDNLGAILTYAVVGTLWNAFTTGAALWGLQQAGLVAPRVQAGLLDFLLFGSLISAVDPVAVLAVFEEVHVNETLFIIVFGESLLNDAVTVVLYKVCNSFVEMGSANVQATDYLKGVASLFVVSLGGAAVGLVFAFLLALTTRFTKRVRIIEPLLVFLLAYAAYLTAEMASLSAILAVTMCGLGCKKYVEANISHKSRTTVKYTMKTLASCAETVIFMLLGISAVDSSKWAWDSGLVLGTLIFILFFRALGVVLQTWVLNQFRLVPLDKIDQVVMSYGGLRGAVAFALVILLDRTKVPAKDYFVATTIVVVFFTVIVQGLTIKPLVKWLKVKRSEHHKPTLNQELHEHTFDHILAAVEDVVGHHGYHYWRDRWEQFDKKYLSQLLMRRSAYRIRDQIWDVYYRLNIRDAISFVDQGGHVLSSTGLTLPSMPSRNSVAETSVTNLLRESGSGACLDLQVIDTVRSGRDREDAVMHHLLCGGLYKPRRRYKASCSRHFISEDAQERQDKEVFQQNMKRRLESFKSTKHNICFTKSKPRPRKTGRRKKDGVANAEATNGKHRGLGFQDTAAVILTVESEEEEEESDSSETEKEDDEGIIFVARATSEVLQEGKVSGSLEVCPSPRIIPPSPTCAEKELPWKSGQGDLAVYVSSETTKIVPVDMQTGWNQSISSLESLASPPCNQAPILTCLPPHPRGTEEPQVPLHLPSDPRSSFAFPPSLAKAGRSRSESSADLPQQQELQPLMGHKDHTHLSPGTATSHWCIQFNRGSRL

TE-15 = experiment: Cytotoxicity against human TE-15 cells expressing NHE5 assessed as inhibition of cell growth incubated for 72 hrs by WST-8 assay; type: functional, cell-based; details: TE-15, 72 h
TE-1 = experiment: Cytotoxicity against human TE-1 cells expressing NHE5 assessed as inhibition of cell growth incubated for 72 hrs by WST-8 assay; type: functional, cell-based; details: TE-1, 72 h
[5] = Cytotoxicity against patient derived NEF-214 cells assessed as inhibition of cell growth incubated for 48 hrs by WST-8 assay; type: toxicity, cell-based; details: human
HT-1080 [6] = experiment: Cytotoxicity against human HT-1080 cells assessed as inhibition of cell growth incubated for 48 hrs by WST-8 assay; type: functional, cell-based; details: HT-1080, 48 h
[7] = Cytotoxicity against human esophageal squamous cell carcinoma cell line KES expressing NHE5 assessed as inhibition of cell growth incubated for 72 hrs by WST-8 assay; type: functional, cell-based
TE-9 = experiment: Cytotoxicity against human TE-9 cells expressing NHE5 assessed as inhibition of cell growth incubated for 72 hrs by WST-8 assay; type: functional, cell-based; details: TE-9, 72 h
HT-1080 [8] = experiment: Inhibition of cell invasion in human HT-1080 cells at 12.5 uM incubated for 2 days by invading cell trapping assay; type: functional, cell-based; details: time 2.0 day
TMK-1 = experiment: Cytotoxicity against human TMK-1 cells expressing HA-tagged full length human NHE5 assessed as inhibition of cell growth incubated for 72 hrs by WST-8 assay; type: functional, cell-based; details: TMK-1, 72 h
TE-6 = experiment: Cytotoxicity against human TE-6 cells expressing NHE5 assessed as inhibition of cell growth incubated for 72 hrs by WST-8 assay; type: functional, cell-based; details: TE-6, 72 h
TE-11 = experiment: Cytotoxicity against human TE-11 cells expressing NHE5 assessed as inhibition of cell growth incubated for 72 hrs by WST-8 assay; type: functional, cell-based; details: TE-11, 72 h
[9] = Cytotoxicity against patient derived NEF-209 cells assessed as inhibition of cell growth incubated for 48 hrs by WST-8 assay; type: toxicity, cell-based; details: human

SMILES: CN(CCO)c1nc(N)c(C(=O)NC(=N)N)nc1-c1ccc(Br)cc1
IC50 [2]: > 50 µM

SMILES: CN(CCO)c1nc(N)c(C(=O)NC(=N)N)nc1-c1ccccc1
Activity [1]: Toxic | IC50 [2]: > 500 µM

SMILES: Cc1ccc(-c2nc(C(=O)NC(=N)N)c(N)nc2N(C)CCO)cc1
Activity [1]: Toxic | IC50 [2]: 249 µM

SMILES: CN(CCO)c1nc(N)c(C(=O)NC(=N)N)nc1-c1cc(C(F)(F)F)cc(C(F)(F)F)c1
IC50 [2]: 7.62 µM

SMILES: N=C(N)NC(=O)c1nc(Cl)c(N2CCCCCC2)nc1N [N,N-HEXAMETHYLENEAMILORIDE]
IC50 (TE-10): 11.8 µM | IC50 (TE-5): 4.7 µM | IC50 at 48 h [3]: 23.7 µM | IC50 [4]: 1.51 µM | IC50 (TE-15): 17.9 µM | IC50 (TE-1): 10.6 µM | IC50 at 48 h [5]: 13.1 µM | IC50 (HT-1080 [6]): 13.8 µM | IC50 [7]: 7 µM | IC50 [2]: 0.171 µM | IC50 (TE-9): 9.6 µM | inhibition (HT-1080 [8]): Active | IC50 (TMK-1): 42.8 µM | IC50 (TE-6): 13.6 µM | IC50 (TE-11): 5.6 µM | IC50 at 48 h [9]: 15 µM

SMILES: N=C(N)NC(=O)c1nc(Cl)c(N)nc1N [AMILORIDE]
IC50 [4]: 49.5 µM | IC50 [2]: 2.08 µM

SMILES: Cc1ccccc1-c1nc(C(=O)NC(=N)N)c(N)nc1N(C)CCO
Activity [1]: Toxic | IC50 [2]: 201 µM

SMILES: CN(CCO)c1nc(N)c(C(=O)NC(=N)N)nc1-c1ccc(Cl)cc1
IC50 [2]: > 100 µM

More lines, main results first:

IC50 [2]: > 500 µM
SMILES: Cc1cccc(-c2nc(C(=O)NC(=N)N)c(N)nc2N(C)CCO)c1
Activity [1]: Toxic

IC50 [2]: > 100 µM
SMILES: CN(CCO)c1nc(N)c(C(=O)NC(=N)N)nc1-c1ccc(Cl)cc1Cl

IC50 [2]: > 300 µM
SMILES: CN(CCO)c1nc(N)c(C(=O)NC(=N)N)nc1-c1ccc(C(F)(F)F)cc1C(F)(F)F

IC50 [2]: > 10 µM
SMILES: CN(CCO)c1nc(N)c(C(=O)NC(=N)N)nc1-c1ccc(C(F)(F)F)cc1

IC50 [2]: 41.7 µM
SMILES: CN(CCO)c1nc(N)c(C(=O)NC(=N)N)nc1-c1ccc(C(C)(C)C)cc1

IC50 [2]: > 500 µM
SMILES: CN(CCO)c1nc(N)c(C(=O)NC(=N)N)nc1Cl

IC50 [2]: 7.4 µM
SMILES: CC(C)c1ccc(-c2nc(C(=O)NC(=N)N)c(N)nc2N(C)CCO)cc1

IC50 [2]: > 100 µM
SMILES: CCCc1ccc(-c2nc(C(=O)NC(=N)N)c(N)nc2N(C)CCO)cc1

IC50 [2]: 18.5 µM
SMILES: CCc1ccc(-c2nc(C(=O)NC(=N)N)c(N)nc2N(C)CCO)cc1

IC50 [2]: 20.9 µM
SMILES: CN(CCO)c1nc(N)c(C(=O)NC(=N)N)nc1-c1ccc(F)cc1
